What was measured:
Assay in all cases: relative viability (nuclei count vs DMSO), 5 days (fraction); higher = more cells survive
Cabozantinib + OSI-027 = compound: COc1cc2nccc(Oc3ccc(NC(=O)C4(C(=O)Nc5ccc(F)cc5)CC4)cc3)c2cc1OC [Cabozantinib] + COc1cccc2cc(-c3nc([C@H]4CC[C@H](C(=O)O)CC4)n4ncnc(N)c34)[nH]c12 [OSI-027] (partner 0.5 µM)
In short: (§1)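 Each reported value is a median over duplicate plates. It expresses relative viability: treated-well nuclei count divided by vehicle-well nuclei count. Lung cancer cell lines in 1536-well plates were dosed by pin tool a day after seeding, alone with one drug or with a fixed anchor-drug dose plus five library-drug doses (not always all listed) in √10 steps, and nuclei were counted after 5 days.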

Kobe2602 + Dasatinib = compound: C1=CC(=CC=C1NC(=S)NNC2=C(C=C(C=C2[N+](=O)[O-])C(F)(F)F)[N+](=O)[O-])F [Kobe2602] + Cc1nc(Nc2ncc(C(=O)Nc3c(C)cccc3Cl)s2)cc(N2CCN(CCO)CC2)n1 [Dasatinib] (partner 0.075 µM)
In short: as §1

Kobe2602 + Alpelisib = compound: C1=CC(=CC=C1NC(=S)NNC2=C(C=C(C=C2[N+](=O)[O-])C(F)(F)F)[N+](=O)[O-])F [Kobe2602] + Cc1nc(NC(=O)N2CCC[C@H]2C(N)=O)sc1-c1ccnc(C(C)(C)C(F)(F)F)c1 [Alpelisib] (partner 2 µM)
In short: as §1

[1] = compound: COc1cc2nccc(Oc3ccc(NC(=O)C4(C(=O)Nc5ccc(F)cc5)CC4)cc3)c2cc1OC [Cabozantinib] + Nc1nc2[nH]cc(CCc3ccc(C(=O)N[C@@H](CCC(=O)O)C(=O)O)cc3)c2c(=O)[nH]1 [Pemetrexed] (partner 0.2 µM)
In short: as §1

Cell Line | relative viability (Cabozantinib + OSI-027; first compound 0.02 µM) | relative viability (Cabozantinib + OSI-027; first compound 0.06325 µM) | relative viability (Cabozantinib + OSI-027; first compound 0.2 µM) | relative viability (Cabozantinib + OSI-027; first compound 0.6325 µM) | relative viability (Cabozantinib + OSI-027; first compound 2 µM) | relative viability (Kobe2602 + Dasatinib; first compound 0.2 µM) | relative viability (Kobe2602 + Dasatinib; first compound 0.6325 µM) | relative viability (Kobe2602 + Dasatinib; first compound 2 µM) | relative viability (Kobe2602 + Dasatinib; first compound 6.325 µM) | relative viability (Kobe2602 + Dasatinib; first compound 20 µM) | relative viability (Kobe2602 + Alpelisib; first compound 0.2 µM) | relative viability (Kobe2602 + Alpelisib; first compound 0.6325 µM) | relative viability (Kobe2602 + Alpelisib; first compound 2 µM) | relative viability (Kobe2602 + Alpelisib; first compound 6.325 µM) | relative viability (Kobe2602 + Alpelisib; first compound 20 µM) | relative viability ([1]; first compound 0.02 µM) | relative viability ([1]; first compound 0.06325 µM) | relative viability ([1]; first compound 0.2 µM) | relative viability ([1]; first compound 0.6325 µM) | relative viability ([1]; first compound 2 µM)
NCI-H647 | 0.589 | 0.633 | 0.641 | 0.636 | 0.548 | 0.244 | 0.338 | 0.158 | 0.17 | 0.2 | 1.23 | 1.37 | 1.11 | 1.21 | 1.12 | 0.165 | 0.192 | 0.162 | 0.149 | 0.133
HCC-366 | 0.753 | 1.03 | 0.951 | 0.795 | 0.778 | 0.613 | 0.632 | 0.597 | 0.646 | 0.727 | 0.364 | 0.493 | 0.309 | 0.429 | 0.496 | 0.189 | 0.214 | 0.173 | 0.156 | 0.15
NCI-H2087 | 0.364 | 0.549 | 0.637 | 0.562 | 0.633 | 0.932 | 0.892 | 0.747 | 0.844 | 0.924 | 1.27 | 1.08 | 1.09 | 1.11 | 1.03 | 0.612 | 0.711 | 0.614 | 0.752 | 0.665
SK-LU-1 | 0.3 | 0.37 | 0.394 | 0.298 | 0.312 | 0.18 | 0.184 | 0.177 | 0.17 | 0.187 | 1.03 | 1.37 | 0.968 | 0.948 | 0.977 | 1.1 | 1.1 | 0.9 | 0.926 | 0.9
HOP-62 | 0.825 | 0.915 | 0.781 | 0.829 | 0.781 | 0.646 | 0.69 | 0.593 | 0.689 | 0.721 | 1.05 | 0.846 | 0.934 | 0.809 | 1.25 | 0.271 | 0.364 | 0.34 | 0.336 | 0.3
NCI-H2126 | – | 0.798 | 0.706 | 0.71 | 0.884 | 0.57 | 0.557 | 0.522 | 0.446 | 0.475 | 0.688 | 0.817 | 0.726 | 0.735 | 0.806 | 0.59 | 0.666 | 0.689 | 0.658 | 0.704
NCI-H441 | 0.428 | 0.653 | 0.663 | 0.564 | 0.559 | 0.66 | 0.606 | 0.71 | 0.699 | 0.621 | 0.725 | 0.864 | 0.682 | 0.704 | 0.727 | 0.243 | 0.237 | 0.288 | 0.229 | 0.235
NCI-H2170 | 0.724 | 0.752 | 0.608 | 0.732 | 0.731 | 0.632 | 0.544 | 0.496 | 0.558 | 0.592 | 0.807 | 0.86 | 0.794 | 0.726 | 0.772 | 0.28 | 0.264 | 0.247 | 0.274 | 0.311
SW 1573 | 0.59 | 0.891 | 0.669 | 0.606 | 0.492 | 0.473 | 0.655 | 0.58 | 0.483 | 0.243 | 0.759 | 0.792 | 0.677 | 0.622 | 0.736 | 0.905 | 0.815 | 0.924 | 0.951 | 0.763
H3255 | 0.527 | 0.662 | – | 0.621 | 0.613 | 0.532 | 0.42 | 0.408 | 0.356 | 0.349 | 0.655 | 0.679 | 0.662 | 0.63 | 0.741 | 0.52 | 0.646 | – | 0.57 | 0.575
EMC-BAC-2 | 0.337 | 0.379 | 0.398 | 0.385 | 0.361 | 0.33 | 0.322 | 0.338 | 0.367 | 0.376 | 0.745 | 0.827 | 0.733 | 0.817 | 0.738 | 0.47 | 0.456 | 0.529 | 0.456 | 0.449
CAL-12T | 0.588 | 0.688 | 0.711 | 0.715 | 0.645 | 0.462 | 0.388 | 0.413 | 0.474 | 0.376 | 0.92 | 1.39 | 0.67 | 0.981 | 1.19 | 1.37 | 1.14 | 1.25 | 1.19 | 1.09
NCI-H838 | 0.458 | 0.38 | 0.339 | 0.414 | 0.366 | 0.264 | 0.309 | 0.249 | 0.291 | 0.289 | 0.909 | 1.01 | 0.915 | 1 | 0.976 | 0.276 | 0.263 | 0.234 | 0.288 | 0.244
NCI-H1944 | 0.282 | 0.425 | 0.389 | 0.444 | 0.402 | 0.255 | 0.223 | 0.233 | 0.213 | 0.245 | 0.803 | 0.884 | 0.885 | 0.805 | 0.944 | 0.601 | 0.645 | 0.631 | 0.637 | 0.696
NCI-H1437 | 0.896 | 0.963 | 0.882 | 0.921 | 0.922 | 0.498 | 0.431 | 0.351 | 0.459 | 0.615 | 0.938 | 1.01 | 0.914 | 0.956 | 0.938 | 0.307 | 0.35 | 0.316 | 0.307 | 0.256
RERF-LC-KJ | 0.498 | 0.623 | 0.547 | 0.602 | 0.645 | 0.769 | 0.714 | 0.652 | 0.556 | 0.405 | 0.829 | 0.792 | 0.742 | 0.865 | 0.779 | 0.471 | 0.463 | 0.402 | 0.347 | 0.463
